# Experimental data reported in US12186423B2, “Brightening booster technology and brightening ampule” (MARY KAY INC., priority 2020, dated 2025).
# “And” between values parts separate entries of the source, which are not always exact repeats. Equal entries are not always repeated.
# What was measured:
# B16-F1 melanocytes [1] = assay: B16 pigmentation assay (melanin production, absorbance at 405 nm); format: cell-based, mouse; conditions: for OD 405 (single readings of triplicate): active ingredients diluted to 1% in DMEM, whole plate reading; for OD 405 (single readings of triplicate) / OD 405 AVG: kojic acid 1 mM, 5-6 days; for OD 405 AVG: average absorbance at 405 nm of triplicate, actives diluted to 1%; for % INHIBITION: vs untreated cells; for % INHIBITION / % Inhibition (change in pigmentation): negative value = less pigmentation; for Melanogenesis (OD 405, single readings of triplicate): alone and combined, kojic acid positive control; for Melanogenesis AVG (OD 405): average of triplicate; for % Inhibition (change in pigmentation): viability-corrected, vs untreated
# Procedure: Melanogenesis is the process by which melanocytes produce melanin, a naturally produced pigment that imparts color to skin, hair, and eyes. Inhibiting melanogenesis is beneficial to prevent skin darkening and lighten dark spots associated with aging. […] The endpoint of these assays are a spectrophotometric measurement of melanin production and cellular viability. B16-F1 melanocytes were cultivated to subconfluence at 37° C. in 10% CO2 in T150 tissue culture flasks in standard DMEM growth medium supplemented with 10% fetal bovine serum (Mediatech) and 1% penicillin/streptomycin. Cells in one confluent T150 tissue culture flask were trypsinized and resuspended in DMEM, and 1% of the resuspended cells were seeded in 200 μl total volume DMEM in each well of a 96-well tissue culture plate. For phenol red-free media, 200 mM L-glutamine (20 ml/L) (Mediatech) was also added to the DMEM growth medium. […] Once cells reached about 20% confluence, cells were treated with any one of the active ingredients, combination of ingredients, or compositions having said combinations disclosed in the specification by replacing the DMEM growth media with 200 μl DMEM growth media containing diluted active ingredients. Cells were also treated with 1 mM kojic acid as a positive control. Cells were then incubated for 5-6 days at 37° C. in 10% CO2. Following incubation, melanin secretion was measured by absorbance of the whole plate at 405 nm (OD 405) (whole plate reading). […] Percent viability of the cell samples was calculated using the following formula: % Viability=(Mean OD 490 of Sample/Mean OD 490 of Control). […] Percent change in pigmentation of the cell samples was calculated using the following formula: % Change=% pigmentation of Sample−% pigmentation of Control.
# B16-F1 melanocytes [2] = format: cell-based; conditions: mouse
# Procedure: The endpoint of these assays are a spectrophotometric measurement of melanin production and cellular viability. B16-F1 melanocytes were cultivated to subconfluence at 37° C. in 10% CO2 in T150 tissue culture flasks in standard DMEM growth medium supplemented with 10% fetal bovine serum (Mediatech) and 1% penicillin/streptomycin. Cells in one confluent T150 tissue culture flask were trypsinized and resuspended in DMEM, and 1% of the resuspended cells were seeded in 200 μl total volume DMEM in each well of a 96-well tissue culture plate. For phenol red-free media, 200 mM L-glutamine (20 ml/L) (Mediatech) was also added to the DMEM growth medium. Active ingredients were diluted to 1% in DMEM growth medium. Once cells reached about 20% confluence, cells were treated with any one of the active ingredients, combination of ingredients, or compositions having said combinations disclosed in the specification by replacing the DMEM growth media with 200 μl DMEM growth media containing diluted active ingredients. Cells were also treated with 1 mM kojic acid as a positive control. Cells were then incubated for 5-6 days at 37° C. in 10% CO2. Following incubation, melanin secretion was measured by absorbance of the whole plate at 405 nm (OD 405) (whole plate reading). […] Percent viability of the cell samples was calculated using the following formula: % Viability=(Mean OD 490 of Sample/Mean OD 490 of Control). […] Percent change in pigmentation of the cell samples was calculated using the following formula: % Change=% pigmentation of Sample−% pigmentation of Control.
# [3] = second experiment, 2% niacinamide, 2% navy bean, 0.2% ferulic acid
Compound,effect on pigmentation / melanin secretion (in words) (B16-F1 melanocytes [1]; first experiment),OD 405 (single readings of triplicate) (B16-F1 melanocytes [1]; first experiment),OD 405 AVG (B16-F1 melanocytes [1]; first experiment),% INHIBITION (B16-F1 melanocytes [1]; first experiment) [%],"inhibited pigmentation / melanin secretion (B16-F1 melanocytes [1]; second experiment, 2% navy bean, 0.2% ferulic acid, 2% niacinamide) [%]","Melanogenesis (OD 405, single readings of triplicate) (B16-F1 melanocytes [1]; [3])",Melanogenesis AVG (OD 405) (B16-F1 melanocytes [1]; [3]),% Inhibition (change in pigmentation) (B16-F1 melanocytes [1]; second experiment) [%],% Viability (B16-F1 melanocytes [2]) [%],Viability AVG (OD 490) (B16-F1 melanocytes [2]),"OD 405 (single readings of triplicate) (B16-F1 melanocytes [1]; first experiment, listed as CONTROL)"
"COc1cc(/C=C/C(=O)O)ccc1O [Ferulic Acid (FA), Ferulic acid]",inhibited pigmentation to some degree,0.367 and 0.384 and 0.391,0.381,−48.858,48.03,0.367 and 0.384 and 0.391,0.381,−48.03,98.4,1.692,
"O=c1cc(CO)occ1O [Kojic Acid, kojic acid]",,,0.328,−55.979,,0.31 and 0.333 and 0.34,0.328,−55.14,98.1,1.687,0.31 and 0.333 and 0.34
"NC(=O)c1cccnc1 [Niacinamide (B3), Niacinamide]",,0.775 and 0.766 and 0.78,0.774,3.941,,0.775 and 0.766 and 0.78,0.774,3.58,100,1.725,
